Assay results: ChEMBL document CHEMBL1177794, “Broad spectrum alkynyl inhibitors of T315I Bcr-Abl” (Bioorg Med Chem Lett, 2010)

Tests used:
[1] = target: Aurora kinase C (Homo sapiens) (UniProt Q9UQB9); test: Inhibition of AURKC at 10 uM; details: values are per cent of control
[2] = target: Tyrosine-protein kinase HCK (Homo sapiens) (UniProt P08631); test: Inhibition of HCK at 10 uM; details: values are per cent of control
[3] = target: Casein kinase II subunit alpha' (Homo sapiens) (UniProt P19784); test: Inhibition of CSNK2A2 at 10 uM; details: values are per cent of control
[4] = target: Serine/threonine-protein kinase OSR1 (Homo sapiens) (UniProt O95747); test: Inhibition of OSR1 at 10 uM
[5] = target: Tyrosine-protein kinase BTK (Homo sapiens) (UniProt Q06187); test: Inhibition of BTK at 10 uM; values are per cent of control
[6] = target: Cyclin-dependent kinase 11A (Homo sapiens) (UniProt Q9UQ88); test: Inhibition of CDC2L2 at 10 uM; details: values are per cent of control
[7] = target: Serine/threonine-protein kinase ULK3 (Homo sapiens) (UniProt Q6PHR2); test: Inhibition of ULK3 at 10 uM; details: values are per cent of control
[8] = target: Fibroblast growth factor receptor 4 (Homo sapiens) (UniProt P22455); test: Inhibition of FGFR4 at 10 uM; details: values are per cent of control
[9] = target: Serine/threonine-protein kinase PAK 6 (Homo sapiens) (UniProt Q9NQU5); test: Inhibition of PAK6 at 10 uM
[10] = target: Dual specificity mitogen-activated protein kinase kinase 1 (Homo sapiens) (UniProt Q02750); test: Inhibition of MEK1 at 10 uM; details: values are per cent of control
[11] = target: Mitogen-activated protein kinase kinase kinase kinase 2 (Homo sapiens) (UniProt Q12851); test: Inhibition of MAP4K2 at 10 uM; details: values are per cent of control
[12] = target: Serine/threonine-protein kinase PAK 5 (Homo sapiens) (UniProt Q9P286); test: Inhibition of PAK7 at 10 uM; details: values are per cent of control
[13] = tested on: Mast/stem cell growth factor receptor Kit (Homo sapiens), P10721 [L576P]; test: Inhibition of KIT L576P mutant at 10 uM; details: values are per cent of control
[14] = target: Serine/threonine-protein kinase Nek7 (Homo sapiens) (UniProt Q8TDX7); test: Inhibition of NEK7 at 10 uM
[15] = target: Homeodomain-interacting protein kinase 2 (Homo sapiens) (UniProt Q9H2X6); test: Inhibition of HIPK2 at 10 uM; details: values are per cent of control
[16] = target: Mitogen-activated protein kinase 11 (Homo sapiens) (UniProt Q15759); test: Inhibition of p38beta at 10 uM; values are per cent of control
[17] = target: Interferon-induced, double-stranded RNA-activated protein kinase (Homo sapiens) (UniProt P19525); test: Inhibition of PRKR at 10 uM
[18] = target: Interleukin-1 receptor-associated kinase 1 (Homo sapiens) (UniProt P51617); test: Inhibition of IRAK1 at 10 uM; values are per cent of control
[19] = target: Serine/threonine-protein kinase pim-3 (Homo sapiens) (UniProt Q86V86); test: Inhibition of PIM3 at 10 uM
[20] = target: Calcium/calmodulin-dependent protein kinase type II subunit beta (Homo sapiens) (UniProt Q13554); test: Inhibition of CAMK2B at 10 uM; details: values are per cent of control
[21] = target: Serine/threonine-protein kinase Nek2 (Homo sapiens) (UniProt P51955); test: Inhibition of NEK2 at 10 uM
[22] = target: NUAK family SNF1-like kinase 1 (Homo sapiens) (UniProt O60285); test: Inhibition of ARK5 at 10 uM; values are per cent of control
[23] = target: TRAF2 and NCK-interacting protein kinase (Homo sapiens) (UniProt Q9UKE5); test: Inhibition of TNIK at 10 uM; details: values are per cent of control
[24] = target: Phosphatidylinositol 4-phosphate 3-kinase C2 domain-containing subunit beta (Homo sapiens) (UniProt O00750); test: Inhibition of PIK3C2B at 10 uM
[25] = target: Serine/threonine-protein kinase Nek5 (Homo sapiens) (UniProt Q6P3R8); test: Inhibition of NEK5 at 10 uM
[26] = target: Epidermal growth factor receptor (Homo sapiens) (UniProt P04626+P00533+Q15303+P21860); test: Inhibition of EGFR S752-I759del mutant at 10 uM; values are per cent of control
[27] = target: Cyclin-dependent kinase 13 (Homo sapiens) (UniProt Q14004); test: Inhibition of CDC2L5 at 10 uM; values are per cent of control
[28] = target: Serine/threonine-protein kinase 38 (Homo sapiens) (UniProt Q15208); test: Inhibition of NDR1 at 10 uM
[29] = target: Casein kinase I isoform gamma-2 (Homo sapiens) (UniProt P78368); test: Inhibition of CSNK1G2 at 10 uM; values are per cent of control
[30] = target: Mitogen-activated protein kinase kinase kinase 19 (Homo sapiens) (UniProt Q56UN5); test: Inhibition of YSK4 at 10 uM; details: values are per cent of control
[31] = target: Serine/threonine-protein kinase MARK2 (Homo sapiens) (UniProt Q7KZI7); test: Inhibition of MARK2 at 10 uM; details: values are per cent of control
[32] = target: STE20/SPS1-related proline-alanine-rich protein kinase (Homo sapiens) (UniProt Q9UEW8); test: Inhibition of STK39 at 10 uM
[33] = target: Serine/threonine-protein kinase 32A (Homo sapiens) (UniProt Q8WU08); test: Inhibition of YANK1 at 10 uM; details: values are per cent of control
[34] = target: Bone morphogenetic protein receptor type-1A (Homo sapiens) (UniProt P36894); test: Inhibition of BMPR1A at 10 uM; details: values are per cent of control
[35] = tested on: BaF3; test: Antiproliferative activity against mouse BAF3 cells expressing Bcr-Abl T315I mutant; format: functional, cell-based
[36] = tested on: Tyrosine-protein kinase ABL1 (Homo sapiens), P00519 [T315I]; test: Inhibition of non phosphorylated ABL1 T315I mutant at 10 uM; details: values are per cent of control
[37] = target: Death-associated protein kinase 2 (Homo sapiens) (UniProt Q9UIK4); test: Inhibition of DAPK2 at 10 uM; details: values are per cent of control
[38] = tested on: Phosphatidylinositol 4,5-bisphosphate 3-kinase catalytic subunit alpha isoform (Homo sapiens), P42336 [M1043I]; test: Inhibition of PIK3CA M1043I mutant at 10 uM
[39] = tested on: Leucine-rich repeat serine/threonine-protein kinase 2 (Homo sapiens), Q5S007 [G2019S]; test: Inhibition of LRRK2 G2019S mutant at 10 uM; details: values are per cent of control
[40] = target: Leukocyte tyrosine kinase receptor (Homo sapiens) (UniProt P29376); test: Inhibition of LTK at 10 uM; details: values are per cent of control
[41] = target: Serine/threonine-protein kinase DCLK3 (Homo sapiens) (UniProt Q9C098); test: Inhibition of DCAMKL3 at 10 uM; details: values are per cent of control
[42] = tested on: Tyrosine-protein kinase ABL1 (Homo sapiens), P00519 [F317L]; test: Inhibition of phosphorylated ABL1 F317L mutant at 10 uM; details: values are per cent of control

Chain of Calcium/calmodulin-dependent protein kinase type II subunit beta (Homo sapiens) (Q13554 whole entry): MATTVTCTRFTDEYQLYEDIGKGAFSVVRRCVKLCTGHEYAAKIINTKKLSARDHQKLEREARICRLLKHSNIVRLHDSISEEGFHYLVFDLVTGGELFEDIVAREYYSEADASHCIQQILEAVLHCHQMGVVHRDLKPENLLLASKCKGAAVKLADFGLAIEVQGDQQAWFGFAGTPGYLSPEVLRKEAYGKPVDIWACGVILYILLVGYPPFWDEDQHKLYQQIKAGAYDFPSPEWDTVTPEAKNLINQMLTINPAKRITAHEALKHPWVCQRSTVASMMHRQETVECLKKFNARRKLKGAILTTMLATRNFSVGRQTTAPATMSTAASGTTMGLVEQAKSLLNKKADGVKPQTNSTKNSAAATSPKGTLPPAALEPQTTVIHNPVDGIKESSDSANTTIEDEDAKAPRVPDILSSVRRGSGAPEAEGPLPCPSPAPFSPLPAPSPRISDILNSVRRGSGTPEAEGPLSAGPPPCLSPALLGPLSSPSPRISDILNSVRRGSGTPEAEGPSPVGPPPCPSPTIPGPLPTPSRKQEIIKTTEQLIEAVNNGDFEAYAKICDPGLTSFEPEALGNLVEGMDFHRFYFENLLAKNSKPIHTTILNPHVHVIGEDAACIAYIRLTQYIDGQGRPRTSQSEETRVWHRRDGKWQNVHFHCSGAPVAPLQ
Chain of Aurora kinase C (Homo sapiens) (Q9UQB9 whole entry): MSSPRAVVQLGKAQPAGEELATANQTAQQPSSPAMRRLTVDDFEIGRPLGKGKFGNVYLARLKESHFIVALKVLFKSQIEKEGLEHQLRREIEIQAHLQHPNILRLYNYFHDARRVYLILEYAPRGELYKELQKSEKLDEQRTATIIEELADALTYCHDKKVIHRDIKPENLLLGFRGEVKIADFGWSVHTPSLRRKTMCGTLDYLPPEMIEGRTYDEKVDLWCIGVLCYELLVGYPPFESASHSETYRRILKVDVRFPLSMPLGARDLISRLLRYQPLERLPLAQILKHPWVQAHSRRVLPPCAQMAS
Chain of Death-associated protein kinase 2 (Homo sapiens) (Q9UIK4 whole entry, looked up, canonical isoform): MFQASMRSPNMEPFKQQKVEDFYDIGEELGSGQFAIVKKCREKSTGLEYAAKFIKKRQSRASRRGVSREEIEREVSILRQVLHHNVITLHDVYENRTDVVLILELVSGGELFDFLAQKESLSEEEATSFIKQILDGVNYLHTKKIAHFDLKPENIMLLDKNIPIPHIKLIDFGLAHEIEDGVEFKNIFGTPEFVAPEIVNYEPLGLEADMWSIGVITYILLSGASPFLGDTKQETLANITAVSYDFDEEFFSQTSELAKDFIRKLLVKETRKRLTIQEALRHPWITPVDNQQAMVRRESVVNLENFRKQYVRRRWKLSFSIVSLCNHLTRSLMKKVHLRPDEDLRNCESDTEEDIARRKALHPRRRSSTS
Chain of TRAF2 and NCK-interacting protein kinase (Homo sapiens) (Q9UKE5 whole entry, looked up, the tested form may be a part): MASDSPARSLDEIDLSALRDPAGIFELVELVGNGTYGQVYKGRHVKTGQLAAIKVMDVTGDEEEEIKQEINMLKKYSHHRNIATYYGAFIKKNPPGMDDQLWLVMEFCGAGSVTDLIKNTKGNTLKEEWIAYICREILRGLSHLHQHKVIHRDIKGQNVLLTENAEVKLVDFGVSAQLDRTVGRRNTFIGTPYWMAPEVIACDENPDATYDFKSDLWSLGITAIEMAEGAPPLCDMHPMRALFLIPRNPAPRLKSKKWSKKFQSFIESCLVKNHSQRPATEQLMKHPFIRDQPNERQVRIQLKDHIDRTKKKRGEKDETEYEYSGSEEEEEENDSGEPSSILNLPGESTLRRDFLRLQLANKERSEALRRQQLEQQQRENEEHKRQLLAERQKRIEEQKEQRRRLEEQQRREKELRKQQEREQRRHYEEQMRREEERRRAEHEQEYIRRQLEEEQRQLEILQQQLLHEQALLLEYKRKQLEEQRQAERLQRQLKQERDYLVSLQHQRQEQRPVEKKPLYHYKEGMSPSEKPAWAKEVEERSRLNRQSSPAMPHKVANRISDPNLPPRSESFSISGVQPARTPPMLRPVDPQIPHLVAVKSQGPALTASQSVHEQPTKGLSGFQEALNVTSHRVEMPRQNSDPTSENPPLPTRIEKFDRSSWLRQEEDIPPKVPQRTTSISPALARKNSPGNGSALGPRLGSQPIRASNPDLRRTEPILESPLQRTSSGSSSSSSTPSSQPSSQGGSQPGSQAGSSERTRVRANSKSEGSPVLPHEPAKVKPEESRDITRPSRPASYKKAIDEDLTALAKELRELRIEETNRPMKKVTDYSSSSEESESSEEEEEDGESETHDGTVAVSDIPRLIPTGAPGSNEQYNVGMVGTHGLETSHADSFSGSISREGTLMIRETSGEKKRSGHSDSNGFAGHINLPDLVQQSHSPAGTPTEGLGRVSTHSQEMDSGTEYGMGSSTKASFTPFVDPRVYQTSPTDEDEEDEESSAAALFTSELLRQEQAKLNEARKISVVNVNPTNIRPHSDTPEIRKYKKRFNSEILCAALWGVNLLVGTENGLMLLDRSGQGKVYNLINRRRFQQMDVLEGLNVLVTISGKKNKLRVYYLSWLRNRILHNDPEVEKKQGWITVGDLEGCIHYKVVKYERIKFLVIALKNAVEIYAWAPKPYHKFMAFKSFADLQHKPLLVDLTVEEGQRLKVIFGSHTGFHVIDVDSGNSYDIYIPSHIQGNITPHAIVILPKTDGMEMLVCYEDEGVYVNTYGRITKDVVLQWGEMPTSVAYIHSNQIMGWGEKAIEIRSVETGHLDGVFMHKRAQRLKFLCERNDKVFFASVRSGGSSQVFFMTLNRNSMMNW
Chain of Phosphatidylinositol 4-phosphate 3-kinase C2 domain-containing subunit beta (Homo sapiens) (O00750 whole entry, the tested form may be a part): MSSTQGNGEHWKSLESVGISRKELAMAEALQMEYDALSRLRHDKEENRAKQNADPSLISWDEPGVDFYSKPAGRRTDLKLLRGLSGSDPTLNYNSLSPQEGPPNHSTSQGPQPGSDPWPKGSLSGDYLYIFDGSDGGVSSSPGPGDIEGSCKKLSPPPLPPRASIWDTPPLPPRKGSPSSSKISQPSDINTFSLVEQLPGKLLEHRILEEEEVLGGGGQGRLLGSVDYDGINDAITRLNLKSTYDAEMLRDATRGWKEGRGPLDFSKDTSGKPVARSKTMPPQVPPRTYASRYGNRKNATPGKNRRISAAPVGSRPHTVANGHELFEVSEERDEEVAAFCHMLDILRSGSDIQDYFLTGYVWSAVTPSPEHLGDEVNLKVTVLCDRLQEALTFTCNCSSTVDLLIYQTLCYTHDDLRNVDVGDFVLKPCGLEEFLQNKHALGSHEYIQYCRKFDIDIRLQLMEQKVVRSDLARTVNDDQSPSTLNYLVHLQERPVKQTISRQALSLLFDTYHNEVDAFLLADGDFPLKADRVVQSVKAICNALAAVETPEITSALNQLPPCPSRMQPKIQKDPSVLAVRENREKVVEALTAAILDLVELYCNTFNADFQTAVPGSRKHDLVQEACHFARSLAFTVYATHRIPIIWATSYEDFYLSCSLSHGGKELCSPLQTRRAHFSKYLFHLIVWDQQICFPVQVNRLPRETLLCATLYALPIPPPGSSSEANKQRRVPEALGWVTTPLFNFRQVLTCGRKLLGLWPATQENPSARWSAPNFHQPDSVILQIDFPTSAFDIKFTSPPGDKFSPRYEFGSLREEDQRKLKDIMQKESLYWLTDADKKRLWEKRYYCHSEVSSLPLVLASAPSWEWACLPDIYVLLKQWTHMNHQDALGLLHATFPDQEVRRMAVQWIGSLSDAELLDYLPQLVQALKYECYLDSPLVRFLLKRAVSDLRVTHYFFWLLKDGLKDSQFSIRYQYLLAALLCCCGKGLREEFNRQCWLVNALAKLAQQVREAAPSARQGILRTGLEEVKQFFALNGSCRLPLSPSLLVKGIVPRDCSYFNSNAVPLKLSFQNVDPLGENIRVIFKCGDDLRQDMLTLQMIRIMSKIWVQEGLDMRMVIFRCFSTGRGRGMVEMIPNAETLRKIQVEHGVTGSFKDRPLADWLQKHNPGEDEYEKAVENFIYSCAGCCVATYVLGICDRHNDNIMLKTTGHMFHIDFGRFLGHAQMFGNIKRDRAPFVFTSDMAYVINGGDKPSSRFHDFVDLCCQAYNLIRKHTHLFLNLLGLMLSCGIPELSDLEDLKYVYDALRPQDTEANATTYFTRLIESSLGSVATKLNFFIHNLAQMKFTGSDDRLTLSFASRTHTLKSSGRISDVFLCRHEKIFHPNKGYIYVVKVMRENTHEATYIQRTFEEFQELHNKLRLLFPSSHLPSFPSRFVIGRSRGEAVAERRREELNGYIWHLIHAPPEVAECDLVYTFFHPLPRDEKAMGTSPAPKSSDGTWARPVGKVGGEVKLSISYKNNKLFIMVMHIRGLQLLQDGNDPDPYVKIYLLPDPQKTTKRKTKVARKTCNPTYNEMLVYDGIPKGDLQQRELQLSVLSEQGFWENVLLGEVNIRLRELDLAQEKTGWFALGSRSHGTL
Chain of Tyrosine-protein kinase HCK (Homo sapiens) (P08631 2-526 limits assumed): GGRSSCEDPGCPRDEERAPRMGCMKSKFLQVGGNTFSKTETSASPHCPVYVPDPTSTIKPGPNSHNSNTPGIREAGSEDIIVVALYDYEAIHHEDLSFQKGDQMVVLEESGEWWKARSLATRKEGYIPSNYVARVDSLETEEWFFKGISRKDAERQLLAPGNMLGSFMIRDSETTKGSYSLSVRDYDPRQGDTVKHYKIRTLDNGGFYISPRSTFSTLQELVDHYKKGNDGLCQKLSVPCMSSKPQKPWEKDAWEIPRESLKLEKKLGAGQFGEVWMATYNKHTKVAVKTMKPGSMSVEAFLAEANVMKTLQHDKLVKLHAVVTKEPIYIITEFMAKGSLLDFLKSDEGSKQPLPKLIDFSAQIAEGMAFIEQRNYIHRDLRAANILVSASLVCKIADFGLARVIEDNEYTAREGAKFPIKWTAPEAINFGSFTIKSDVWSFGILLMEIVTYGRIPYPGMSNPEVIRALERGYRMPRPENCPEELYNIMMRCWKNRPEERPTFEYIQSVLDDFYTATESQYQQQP

CCN1CCN(Cc2ccc(NC(=O)c3ccc(C)c(C#Cc4cnc5[nH]ccc5c4)c3)cc2C(F)(F)F)CC1
residual binding, % of control [1]: 11%
residual binding, % of control [2]: 0.15%
residual binding, % of control [3]: 78%
inhibition [4]: 60%
level, % of control [5]: 1.2%
residual binding, % of control [6]: 0%
residual binding, % of control [7]: 0.25%
residual binding, % of control [8]: 0%
inhibition [9]: 85%
residual binding, % of control [10]: 82%
residual binding, % of control [11]: 0%
residual binding, % of control [12]: 64%
residual binding, % of control [13]: 0%
inhibition [14]: 50%
residual binding, % of control [15]: 46%
level, % of control [16]: 0%
inhibition [17]: 54%
level, % of control [18]: 6.2%
inhibition [19]: 100%
residual binding, % of control [20]: 100%
inhibition [21]: 100%
level, % of control [22]: 95%
residual binding, % of control [23]: 1.6%
inhibition [24]: 100%
inhibition [25]: 0.65%
level, % of control [26]: 0.75%
level, % of control [27]: 13%
inhibition [28]: 33%
level, % of control [29]: 14%
residual binding, % of control [30]: 0.1%
residual binding, % of control [31]: 83%
inhibition [32]: 100%
residual binding, % of control [33]: 98%
residual binding, % of control [34]: 53%
EC50 [35]: 80 nM
residual binding, % of control [36]: 2.4%
residual binding, % of control [37]: 100%
inhibition [38]: 100%
residual binding, % of control [39]: 8.8%
residual binding, % of control [40]: 2.5%
residual binding, % of control [41]: 100%
residual binding, % of control [42]: 0.85%

CCN1CCN(Cc2ccc(NC(=O)c3ccc(C)c(C#Cc4cccnc4)c3)cc2C(F)(F)F)CC1
residual binding, % of control [1]: 13%
residual binding, % of control [2]: 0.05%
residual binding, % of control [3]: 94%
inhibition [4]: 48%
level, % of control [5]: 2%
residual binding, % of control [6]: 1.6%
residual binding, % of control [7]: 0.25%
residual binding, % of control [8]: 0%
inhibition [9]: 100%
residual binding, % of control [10]: 100%
residual binding, % of control [11]: 0%
residual binding, % of control [12]: 83%
residual binding, % of control [13]: 0%
inhibition [14]: 88%
residual binding, % of control [15]: 34%
level, % of control [16]: 0%
inhibition [17]: 66%
level, % of control [18]: 1.2%
inhibition [19]: 100%
residual binding, % of control [20]: 100%
inhibition [21]: 100%
level, % of control [22]: 100%
residual binding, % of control [23]: 1.8%
inhibition [24]: 100%
inhibition [25]: 4.8%
level, % of control [26]: 0.9%
level, % of control [27]: 6.5%
inhibition [28]: 4%
level, % of control [29]: 100%
residual binding, % of control [30]: 0.1%
residual binding, % of control [31]: 100%
inhibition [32]: 89%
residual binding, % of control [33]: 81%
residual binding, % of control [34]: 81%
EC50 [35]: 92 nM
residual binding, % of control [36]: 2.8%
residual binding, % of control [37]: 100%
inhibition [38]: 83%
residual binding, % of control [39]: 7.5%
residual binding, % of control [40]: 4.5%
residual binding, % of control [41]: 100%
residual binding, % of control [42]: 0.85%
